Source: ChEMBL document CHEMBL1201861, “Genomics of Drug Sensitity in Cancer screening data, Wellcome Trust Sanger Institute”

Legend:
Type in all cases: functional, cell-based
Calu-1 = test: SANGER: Inhibition of human Calu-1 cell growth in a cell viability assay.
NB1 = test: cells; conditions: Homo sapiens;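 also: reduction of NB1 cell proliferation, read out with a viability assay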
Description: SANGER: Inhibition of human NB1 cell growth in a cell viability assay.

YKG-1 = test: cells; conditions: Homo sapiens;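 also: cell growth inhibition, read out with a viability assay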
Description: SANGER: Inhibition of human YKG-1 cell growth in a cell viability assay.

IPC-298 = test: SANGER: Inhibition of human IPC-298 cell growth in a cell viability assay.
MC-IXC = test: cells; conditions: Homo sapiens;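 also: growth inhibition of MC-IXC cells, read out with a cell viability assay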
Description: SANGER: Inhibition of human MC-IXC cell growth in a cell viability assay.

HCC38 = test: cells; conditions: Homo sapiens;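 also: cell viability assay on the human HCC38 cell line, with IC50 marking the concentration that inhibits cell growth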
Description: SANGER: Inhibition of human HCC38 cell growth in a cell viability assay.

CMK = test: cells; conditions: Homo sapiens;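 also: growth inhibition of CMK cells, read out as cell viability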
Description: SANGER: Inhibition of human CMK cell growth in a cell viability assay.

SNU-423 = test: cells; conditions: Homo sapiens
Description: SANGER: Inhibition of human SNU-423 cell growth in a cell viability assay.

MC-CAR = test: cells; conditions: Homo sapiens;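 also: growth inhibition of the human MC-CAR cell line, read out by a cell viability assay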
Description: SANGER: Inhibition of human MC-CAR cell growth in a cell viability assay.

CAL-54 = test: cells; conditions: Homo sapiens;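 also: growth inhibition of CAL-54 cells, read out by a viability measurement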
Description: SANGER: Inhibition of human CAL-54 cell growth in a cell viability assay.

SNU-16 = test: cells; conditions: Homo sapiens;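 also: growth inhibition of human SNU-16 cells, determined with a cell viability readout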
Description: SANGER: Inhibition of human NCI-SNU-16 cell growth in a cell viability assay.

NCI-H64 = test: cells; conditions: Homo sapiens;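 also: growth inhibition of NCI-H64 cells, read out with a cell viability assay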
Description: SANGER: Inhibition of human NCI-H64 cell growth in a cell viability assay.

RT-4 = test: SANGER: Inhibition of human RT4 cell growth in a cell viability assay.
EW-7 = test: SANGER: Inhibition of human EW-7 cell growth in a cell viability assay.
NCI-H596 = test: cells; conditions: Homo sapiens;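 also: growth inhibition of NCI-H596 cells, read out with a cell viability assay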
Description: SANGER: Inhibition of human NCI-H596 cell growth in a cell viability assay.

NCI-H2347 = test: cells; conditions: Homo sapiens;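 also: growth inhibition of the cell line, read out with a cell viability assay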
Description: SANGER: Inhibition of human NCI-H2347 cell growth in a cell viability assay.

MHH-CALL-2 = test: cells; conditions: Homo sapiens;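 also: growth inhibition of the cell line, read out in a cell viability assay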
Description: SANGER: Inhibition of human MHH-CALL-2 cell growth in a cell viability assay.

HN = test: cells; conditions: Homo sapiens
Description: SANGER: Inhibition of human HN cell growth in a cell viability assay.

HuO-3N1 = test: cells; conditions: Homo sapiens;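 also: cell viability readout used to measure how strongly compounds suppress proliferation of human HuO-3N1 cells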
Description: SANGER: Inhibition of human HuO-3N1 cell growth in a cell viability assay.

Kasumi 1 = test: cells; conditions: Homo sapiens;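 also: growth inhibition of human Kasumi-1 cells, read out by a cell viability assay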
Description: SANGER: Inhibition of human KASUMI-1 cell growth in a cell viability assay.

EFM-19 = test: cells; conditions: Homo sapiens;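 also: growth inhibition of human EFM-19 cells, measured in a cell viability assay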
Description: SANGER: Inhibition of human EFM-19 cell growth in a cell viability assay.

Hs-578T = test: cells; conditions: Homo sapiens
Description: SANGER: Inhibition of human Hs-578-T cell growth in a cell viability assay.

SW780 = test: cells; conditions: Homo sapiens;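 also: growth inhibition of the cells, read out with a cell viability assay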
Description: SANGER: Inhibition of human SW780 cell growth in a cell viability assay.

D-247MG = test: cells; conditions: Homo sapiens
Description: SANGER: Inhibition of human D-247MG cell growth in a cell viability assay.

CAL-39 = test: cells; conditions: Homo sapiens;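 also: cell viability assay measuring growth inhibition of CAL-39 cells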
Description: SANGER: Inhibition of human CAL-39 cell growth in a cell viability assay.

NUGC-3 = test: cells; conditions: Homo sapiens;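 also: growth inhibition of human NUGC-3 cells, read out with a cell viability assay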
Description: SANGER: Inhibition of human NUGC-3 cell growth in a cell viability assay.

CAMA-1 = test: cells; conditions: Homo sapiens;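 also: growth inhibition of CAMA-1 cells, read out with a cell viability assay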
Description: SANGER: Inhibition of human CAMA-1 cell growth in a cell viability assay.

MG-63 = test: cells; conditions: Homo sapiens;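 also: growth inhibition of human MG-63 cells, read out with a cell viability assay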
Description: SANGER: Inhibition of human MG-63 cell growth in a cell viability assay.

TGW = test: cells; conditions: Homo sapiens;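 also: growth inhibition of human TGW cells, read out with a cell viability assay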
Description: SANGER: Inhibition of human TGW cell growth in a cell viability assay.

OVCAR-8 = test: cells; conditions: Homo sapiens;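 also: growth inhibition of human OVCAR-8 cells, read out by a cell viability assay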
Description: SANGER: Inhibition of human OVCAR-8 cell growth in a cell viability assay.

TUR = test: cells; conditions: Homo sapiens;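 also: growth inhibition of human TUR cells, read out with a cell viability assay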
Description: SANGER: Inhibition of human TUR cell growth in a cell viability assay.

T47D = test: cells; conditions: Homo sapiens;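 also: growth inhibition of human T47D cells, measured with a cell viability assay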
Description: SANGER: Inhibition of human T47D cell growth in a cell viability assay.

U-251 = test: cells; conditions: Homo sapiens;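 also: growth inhibition of human U-251 cells, read out through a cell viability assay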
Description: SANGER: Inhibition of human U251 cell growth in a cell viability assay.

KYSE-150 cell line = test: cells; conditions: Homo sapiens;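 also: growth inhibition of human KYSE-150 cells, read out with a cell viability assay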
Description: SANGER: Inhibition of human KYSE-150 cell growth in a cell viability assay.

HCT-116 = test: cells; conditions: Homo sapiens
Description: SANGER: Inhibition of human HCT-116 cell growth in a cell viability assay.

SW756 = test: cells; conditions: Homo sapiens;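 also: growth inhibition of human SW756 cells, read out with a cell viability assay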
Description: SANGER: Inhibition of human SW756 cell growth in a cell viability assay.

T-24 = test: cells; conditions: Homo sapiens;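 also: growth inhibition of T-24 cells, read out with a cell viability assay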
Description: SANGER: Inhibition of human T-24 cell growth in a cell viability assay.

DG-75 = test: cells; conditions: Homo sapiens;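 also: growth inhibition of DG-75 cells, read out with a cell viability assay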
Description: SANGER: Inhibition of human DG-75 cell growth in a cell viability assay.

CAL-33 = test: cells; conditions: Homo sapiens;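 also: growth inhibition of CAL-33 cells, read out with a cell viability assay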
Description: SANGER: Inhibition of human CAL-33 cell growth in a cell viability assay.

TCC-SUP = test: cells; conditions: Homo sapiens;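 also: growth inhibition of TCC-SUP cells, read out with a cell viability assay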
Description: SANGER: Inhibition of human TCCSUP cell growth in a cell viability assay.

C3A = test: cells; conditions: Homo sapiens;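 also: growth inhibition of C3A human cells, quantified with a cell viability readout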
Description: SANGER: Inhibition of human C3A cell growth in a cell viability assay.

SJRH30 = test: cells; conditions: Homo sapiens;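 also: growth inhibition of human SJRH30 cells, read out with a cell viability assay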
Description: SANGER: Inhibition of human SJRH30 cell growth in a cell viability assay.

HMV-2 cell line = test: cells; conditions: Homo sapiens;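 also: growth inhibition of HMV-II cells, read out with a cell viability assay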
Description: SANGER: Inhibition of human HMV-II cell growth in a cell viability assay.

KMS-12-PE = test: cells; conditions: Homo sapiens;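 also: growth inhibition of human KMS-12-PE cells, measured with a cell viability assay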
Description: SANGER: Inhibition of human KMS-12-PE cell growth in a cell viability assay.

SR = test: cells; conditions: Homo sapiens
Description: SANGER: Inhibition of human SR cell growth in a cell viability assay.

NCI-H2009 = test: cells; conditions: Homo sapiens;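 also: cell viability assay measuring inhibition of NCI-H2009 cell growth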
Description: SANGER: Inhibition of human NCI-H2009 cell growth in a cell viability assay.

RPMI-2650 = test: cells; conditions: Homo sapiens
Description: SANGER: Inhibition of human RPMI-2650 cell growth in a cell viability assay.

NCI-H460 = test: cells; conditions: Homo sapiens;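 also: cell viability assay scoring growth inhibition of human NCI-H460 cells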
Description: SANGER: Inhibition of human NCI-H460 cell growth in a cell viability assay.

CAL-27 = test: cells; conditions: Homo sapiens;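 also: Viability-based readout, IC50 reflecting inhibition of CAL-27 cell growth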
Description: SANGER: Inhibition of human CAL-27 cell growth in a cell viability assay.

Ca-Ski = test: cells; conditions: Homo sapiens;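 also: cell viability assay measuring inhibition of Ca-Ski cell growth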
Description: SANGER: Inhibition of human Ca-Ski cell growth in a cell viability assay.

RMG-I = test: cells; conditions: Homo sapiens;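 also: growth inhibition of human RMG-I cells, read out with a cell viability assay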
Description: SANGER: Inhibition of human RMG-I cell growth in a cell viability assay.

LCLC-97TM1 = test: cells; conditions: Homo sapiens;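 also: cell viability assay measuring growth inhibition of human LCLC-97TM1 cells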
Description: SANGER: Inhibition of human LCLC-97TM1 cell growth in a cell viability assay.

HOP-92 = test: cells; conditions: Homo sapiens;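 also: cell viability readout, with IC50 reflecting inhibition of HOP-92 cell growth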
Description: SANGER: Inhibition of human HOP-92 cell growth in a cell viability assay.

DMS-153 = test: cells; conditions: Homo sapiens
Description: SANGER: Inhibition of human DMS-153 cell growth in a cell viability assay.

IST-SL2 = test: cells; conditions: Homo sapiens;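 also: growth inhibition of human IST-SL2 cells, read out by a cell viability assay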
Description: SANGER: Inhibition of human IST-SL2 cell growth in a cell viability assay.

AN3-CA = test: cells; conditions: Homo sapiens;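 also: growth inhibition of human AN3-CA cells measured by a cell viability assay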
Description: SANGER: Inhibition of human AN3-CA cell growth in a cell viability assay.

VMRC-RCZ = test: cells; conditions: Homo sapiens
Description: SANGER: Inhibition of human VMRC-RCZ cell growth in a cell viability assay.

SW1783 = test: cells; conditions: Homo sapiens
Description: SANGER: Inhibition of human SW1783 cell growth in a cell viability assay.

DK-MG = test: cells; conditions: Homo sapiens;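 also: growth inhibition of DK-MG cells, read out with a cell viability assay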
Description: SANGER: Inhibition of human DK-MG cell growth in a cell viability assay.

PA-1 = test: cells; conditions: Homo sapiens;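 also: IC50 for suppression of PA-1 cell proliferation, determined with a cell viability read-out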
Description: SANGER: Inhibition of human PA-1 cell growth in a cell viability assay.

HCC2157 = test: cells; conditions: Homo sapiens;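 also: growth inhibition of the cancer cell line, read out as cell viability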
Description: SANGER: Inhibition of human HCC2157 cell growth in a cell viability assay.

NCI-H748 = test: cells; conditions: Homo sapiens;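 also: growth inhibition of NCI-H748 cells, measured by a cell viability assay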
Description: SANGER: Inhibition of human NCI-H748 cell growth in a cell viability assay.

O=c1[nH]c2ccccc2n1C1CCN(Cc2ccc(-c3nc4cc5[nH]cnc5cc4nc3-c3ccccc3)cc2)CC1
IC50 (Calu-1): > 2.56 µM | IC50 (NB1): > 2.56 µM | IC50 (YKG-1): 1.02 µM | IC50 (IPC-298): > 2.56 µM | IC50 (MC-IXC): 2.06 µM | IC50 (HCC38): > 2.56 µM | IC50 (CMK): > 2.56 µM | IC50 (SNU-423): > 2.56 µM | IC50 (MC-CAR): > 2.56 µM | IC50 (CAL-54): > 2.56 µM | IC50 (SNU-16): > 2.56 µM | IC50 (NCI-H64): > 2.56 µM | IC50 (RT-4): > 2.56 µM | IC50 (EW-7): > 2.56 µM | IC50 (NCI-H596): > 2.56 µM | IC50 (NCI-H2347): > 2.56 µM | IC50 (MHH-CALL-2): > 2.56 µM | IC50 (HN): > 2.56 µM | IC50 (HuO-3N1): > 2.56 µM | IC50 (Kasumi 1): 1.41 µM | IC50 (EFM-19): 0.564 µM | IC50 (Hs-578T): > 2.56 µM | IC50 (SW780): > 2.56 µM | IC50 (D-247MG): > 2.56 µM | IC50 (CAL-39): > 2.56 µM | IC50 (NUGC-3): > 2.56 µM | IC50 (CAMA-1): > 2.56 µM | IC50 (MG-63): > 2.56 µM | IC50 (TGW): > 2.56 µM | IC50 (OVCAR-8): > 2.56 µM | IC50 (TUR): > 2.56 µM | IC50 (T47D): 0.516 µM | IC50 (U-251): > 2.56 µM | IC50 (KYSE-150 cell line): > 2.56 µM | IC50 (HCT-116): > 2.56 µM | IC50 (SW756): > 2.56 µM | IC50 (T-24): > 2.56 µM | IC50 (DG-75): > 2.56 µM | IC50 (CAL-33): > 2.56 µM | IC50 (TCC-SUP): > 2.56 µM | IC50 (C3A): > 2.56 µM | IC50 (SJRH30): > 2.56 µM | IC50 (HMV-2 cell line): > 2.56 µM | IC50 (KMS-12-PE): > 2.56 µM | IC50 (SR): > 2.56 µM | IC50 (NCI-H2009): > 2.56 µM | IC50 (RPMI-2650): > 2.56 µM | IC50 (NCI-H460): > 2.56 µM | IC50 (CAL-27): > 2.56 µM | IC50 (Ca-Ski): > 2.56 µM | IC50 (RMG-I): > 2.56 µM | IC50 (LCLC-97TM1): 2.3 µM | IC50 (HOP-92): > 2.56 µM | IC50 (DMS-153): > 2.56 µM | IC50 (IST-SL2): > 2.56 µM | IC50 (AN3-CA): 1.66 µM | IC50 (VMRC-RCZ): > 2.56 µM | IC50 (SW1783): > 2.56 µM | IC50 (DK-MG): > 2.56 µM | IC50 (PA-1): > 2.56 µM | IC50 (HCC2157): > 2.56 µM | IC50 (NCI-H748): > 2.56 µM

Fc1cc(-c2cc[nH]/c(=N/c3ccc(-n4cnc(N5CCOCC5)n4)cc3)n2)cc(N2CCOCC2)c1
IC50 (Calu-1): 3.12 µM | IC50 (NB1): 0.447 µM | IC50 (YKG-1): 0.724 µM | IC50 (IPC-298): 0.854 µM | IC50 (MC-IXC): 0.127 µM | IC50 (HCC38): 1.73 µM | IC50 (CMK): 0.545 µM | IC50 (SNU-423): 0.378 µM | IC50 (MC-CAR): 0.38 µM | IC50 (CAL-54): 1.88 µM | IC50 (SNU-16): > 5.12 µM | IC50 (NCI-H64): 0.862 µM | IC50 (RT-4): 3.56 µM | IC50 (EW-7): 0.562 µM | IC50 (NCI-H596): 0.814 µM | IC50 (NCI-H2347): 1.02 µM | IC50 (MHH-CALL-2): 0.762 µM | IC50 (HN): 4.24 µM | IC50 (HuO-3N1): 1.57 µM | IC50 (Kasumi 1): 0.34 µM | IC50 (EFM-19): 0.76 µM | IC50 (Hs-578T): > 5.12 µM | IC50 (SW780): 1.63 µM | IC50 (D-247MG): 4.67 µM | IC50 (CAL-39): 0.309 µM | IC50 (NUGC-3): 0.687 µM | IC50 (CAMA-1): > 5.12 µM | IC50 (MG-63): 0.669 µM | IC50 (TGW): 3.47 µM | IC50 (OVCAR-8): 0.412 µM | IC50 (TUR): 0.363 µM | IC50 (T47D): > 5.12 µM | IC50 (U-251): 1.31 µM | IC50 (KYSE-150 cell line): 0.664 µM | IC50 (HCT-116): 0.164 µM | IC50 (SW756): 2.06 µM | IC50 (T-24): 2.87 µM | IC50 (DG-75): 1.29 µM | IC50 (CAL-33): 0.826 µM | IC50 (TCC-SUP): > 5.12 µM | IC50 (C3A): 0.566 µM | IC50 (SJRH30): 0.349 µM | IC50 (HMV-2 cell line): 0.151 µM | IC50 (KMS-12-PE): 1.16 µM | IC50 (SR): 0.122 µM | IC50 (NCI-H2009): 0.508 µM | IC50 (RPMI-2650): 0.224 µM | IC50 (NCI-H460): 0.337 µM | IC50 (CAL-27): 0.066 µM | IC50 (Ca-Ski): 0.532 µM | IC50 (RMG-I): 1.25 µM | IC50 (LCLC-97TM1): 0.163 µM | IC50 (HOP-92): 2.41 µM | IC50 (DMS-153): 1.24 µM | IC50 (IST-SL2): 0.457 µM | IC50 (AN3-CA): 0.335 µM | IC50 (VMRC-RCZ): 0.999 µM | IC50 (SW1783): 0.428 µM | IC50 (DK-MG): > 5.12 µM | IC50 (PA-1): 0.102 µM | IC50 (HCC2157): 0.494 µM | IC50 (NCI-H748): 1.08 µM
